Measured values published in US8193191B2, “Urotensin II receptor antagonists” (Janssen Pharmaceutica N.V., priority 2006, dated 2012).
“And” between values parts separate entries of the source, which are not always exact repeats. Identical values can stand only once. Like-named read-outs stand apart in the source and are kept apart here.

Assays:
[1] = molecular target: T1, rat GPR14 (U-II receptor) (Rattus norvegicus, UniProt P49684); assay: Rat UII Calcium Mobilization FLIPR Assay; format: cell-based; settings: for inhibition at 10 µM / inhibition at 50 µM: CHO, 5 min, agonist-induced Ca2+ mobilization (FLIPR), CHO cells with rat UII receptor; for inhibition at 10 µM: 10 μM compound, read-out: % I @ 10; for inhibition at 50 µM: 50 μM compound, read-out: % I @ 50
T1 construct: expressed in transfected cells
T1 sequence (P49684 1-386): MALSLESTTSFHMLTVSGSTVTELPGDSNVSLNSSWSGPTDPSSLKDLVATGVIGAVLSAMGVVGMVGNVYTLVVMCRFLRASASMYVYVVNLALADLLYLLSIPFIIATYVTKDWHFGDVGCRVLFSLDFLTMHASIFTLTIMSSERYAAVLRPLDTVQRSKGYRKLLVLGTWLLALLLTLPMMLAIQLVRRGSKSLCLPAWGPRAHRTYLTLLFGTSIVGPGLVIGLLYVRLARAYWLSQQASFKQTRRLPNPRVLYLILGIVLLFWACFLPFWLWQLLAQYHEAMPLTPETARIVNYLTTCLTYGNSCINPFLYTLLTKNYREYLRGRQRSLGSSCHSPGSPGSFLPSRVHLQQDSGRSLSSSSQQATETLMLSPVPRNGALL
Source text: To derive these cells, the complete coding sequence of rat U-II (Genbank Accession No. U32673) was amplified by nested PCR from rat heart marathon-Ready cDNA. […] The PCR products were cloned into pcDNA3 (Invitrogen) digested with EcoR I and Xba I. Clones containing rat U-II receptor were verified by complete sequencing of the U-II receptor insert to ensure a lack of PCR-introduced errors. The constructed vector was transfected into CHO cells by using lipofectamine (GIBCO BRL). CHO cells with high expression of rat U-II receptor were selected and established as stable cell lines by using G418. CHO cells were seeded at 25,000 cells per well into 96-well, black-wall, clear-bottom microtiter plates 24 h before assay. Cells in culture media (DMEM/F12 containing 15 mM HEPES, L-glutamine, pyridoxine hydrochloride; 10% fetal bovine serum; 1 mg/mL G418 sulfate; antibiotic-antimycotic; pH 7.4) were loaded with proprietary dye, from the FLIPR Calcium Assay Kit (Molecular Devices), prepared in assay buffer (Hanks Balanced Salts Solution, 20 mM HEPES, 0.1% BSA, 2.5 mM probenecid, pH 7.4), and incubated for 1 h at 37° C. Calcium mobilization determinations were performed at room temperature (23° C.).

[2] = molecular target: T2, endogenous human UII receptor (Homo sapiens, UniProt Q9UKP6); assay: Human Radioligand Binding Assay ((^125I)-U-II binding to human skeletal muscle myoblasts)
T2 sequence (Q9UKP6 1-389): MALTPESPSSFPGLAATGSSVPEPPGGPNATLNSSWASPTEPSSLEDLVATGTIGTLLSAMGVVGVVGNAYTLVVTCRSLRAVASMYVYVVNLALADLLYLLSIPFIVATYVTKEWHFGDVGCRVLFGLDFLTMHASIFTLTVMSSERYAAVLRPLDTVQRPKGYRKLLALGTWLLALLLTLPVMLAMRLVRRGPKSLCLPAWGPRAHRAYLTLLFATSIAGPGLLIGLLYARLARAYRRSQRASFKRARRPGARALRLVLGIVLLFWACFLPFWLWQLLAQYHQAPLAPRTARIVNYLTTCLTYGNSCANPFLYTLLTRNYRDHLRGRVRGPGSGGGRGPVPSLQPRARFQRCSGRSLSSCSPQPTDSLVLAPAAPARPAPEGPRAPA

[3] = average value for the compound tested, read-out: Rat UII FLIPR Average IC50
[4] = Inhibition of Acetyl-cyclic[Cys-Phe-Trp-Lys-(2-Nal)-Cys]-NH2 induced Ca2+ mobilization (FLIPR) in CHO cells transfected with rat UII receptor, read-out: IC50

SMILES	IC50 [1, 3] [µM]	Ki [2] [µM]	IC50 [1, 4]	inhibition at 10 µM [1] [%]	inhibition at 50 µM [1] [%]	Ki ([2]; Inhibition of human UII binding to human skeletal muscle myoblasts containing endogenous human UII receptor) [µM]
COc1ccc([C@@H](CCCNS(=O)(=O)c2cn(C)nc2C(F)(F)F)N2C(=O)c3cccc(N4CCN([C@H](C)c5ccccc5)CC4)c3C2=O)cc1OC [Cpd 135, (R)-1-methyl-3-trifluoromethyl-1H-pyrazole-4-sulfonic acid (4-(3,4-dimethoxy-phenyl)-4-{1,3-dioxo-4-[4-(1R)-(1-phenyl-ethyl)-piperazin-1-yl]-1,3-dihydro-isoindol-2-yl}-butyl)-amide]	0.056	0.19	–	–	–	–
COc1ccc(CN2C(=O)c3cccc(N4CCN(Cc5ccc(F)cc5)CC4)c3C2=O)cc1OC [Cpd 12, 2-(3,4-dimethoxy-benzyl)-4-[4-(4-fluoro-benzyl)-piperazin-1-yl]-isoindole-1,3-dione]	–	4.5	2.8 µM and 0.37 µM	–	–	–
COc1ccc(C(CCCCNC(=O)OC(C)(C)C)N2C(=O)c3cccc(N4CCN([C@H](C)c5ccccc5)CC4)c3C2=O)cc1OC (stereo partly drawn) [Cpd 69, (5-(3,4-dimethoxy-phenyl)-5-{1,3-dioxo-4-[4-(1R)-(1-phenyl-ethyl)-piperazin-1-yl]-1,3-dihydro-isoindol-2-yl}-pentyl)-carbamic acid tert-butyl ester]	–	> 10	65 µM	11	52	–
COc1ccc(CN2C(=O)c3cccc(N4CCN(Cc5cccc(F)c5)CC4)c3C2=O)cc1OC [Cpd 17, 2-(3,4-dimethoxy-benzyl)-4-[4-(3-fluoro-benzyl)-piperazin-1-yl]-isoindole-1,3-dione]	–	3.5	1.1 µM	99	101	–
C/C=C(\C)CN1CCN(c2cccc3c2C(=O)N(Cc2ccc(OC)c(OC)c2)C3=O)CC1 [Cpd 86, (E)-2-(3,4-dimethoxy-benzyl)-4-[4-(2-methyl-but-2-enyl)-piperazin-1-yl]-isoindole-1,3-dione]	0.29	1.3	–	–	–	–
COc1ccc(C(CCCN)N2C(=O)c3cccc(N4CCN([C@H](C)c5ccccc5)CC4)c3C2=O)cc1OC (stereo partly drawn) [Cpd 66, 2-[4-amino-1-(3,4-dimethoxy-phenyl)-butyl]-4-[4-(1R)-(1-phenyl-ethyl)-piperazin-1-yl]-isoindole-1,3-dione]	–	–	0.2 µM	101	97	3.2
COc1ccc(C(CN)N2C(=O)c3cccc(N4CCN([C@H](C)c5ccccc5)CC4)c3C2=O)cc1OC (stereo partly drawn) [Cpd 64, 2-[2-amino-1-(3,4-dimethoxy-phenyl)-ethyl]-4-[4-(1R)-(1-phenyl-ethyl)-piperazin-1-yl]-isoindole-1,3-dione]	–	0.7	0.3 µM	101	98	–
COc1ccc(CN2C(=O)c3cccc(N4CCN(C(C)c5ccccc5)CC4)c3C2=O)cc1OC (stereo not shown) [Cpd 6, 2-(3,4-dimethoxy-benzyl)-4-[4-(1-phenyl-ethyl)-piperazin-1-yl]-isoindole-1,3-dione]	–	1.2	0.16 µM	103	102	–
COc1ccc(C(CCCCN)N2C(=O)c3cccc(N4CCN([C@H](C)c5ccccc5)CC4)c3C2=O)cc1OC (stereo partly drawn) [Cpd 70, 2-[5-amino-1-(3,4-dimethoxy-phenyl)-pentyl]-4-[4-(1R)-(1-phenyl-ethyl)-piperazin-1-yl]-isoindole-1,3-dione]	–	5.4	0.3 µM and 0.27 µM	102	101	–
COc1ccc(CN2C(=O)c3cccc(N4CCN(Cc5ccc(C)o5)CC4)c3C2=O)cc1OC [Cpd 77, 2-(3,4-dimethoxy-benzyl)-4-[4-(5-methyl-furan-2-ylmethyl)-piperazin-1-yl]-isoindole-1,3-dione]	0.85	7.2	–	–	–	–
COc1ccc([C@@H](CCCNS(N)(=O)=O)N2C(=O)c3cccc(N4CCN([C@H](C)c5ccccc5)CC4)c3C2=O)cc1OC [Cpd 141, (R)-N′-[(4-(3,4-dimethoxy-phenyl)-4-{1,3-dioxo-4-[4-(1R)-(1-phenyl-ethyl)-piperazin-1-yl]-1,3-dihydro-isoindol-2-yl}-butyl)]-sulfamide]	–	0.017	–	–	–	–
Cc1c(CN2C(=O)c3cccc(N4CCN(Cc5ccccc5)CC4)c3C2=O)cnn1C [Cpd 55, 4-(4-benzyl-piperazin-1-yl)-2-(1,5-dimethyl-1H-pyrazol-4-ylmethyl)-isoindole-1,3-dione]	–	–	24 µM	12	75	–
COc1ccc(CN2C(=O)c3cccc(N4CCN(Cc5ccccc5C#N)CC4)c3C2=O)cc1OC [Cpd 38, 2-{4-[2-(3,4-dimethoxy-benzyl)-1,3-dioxo-2,3-dihydro-1H-isoindol-4-yl]-piperazin-1-ylmethyl}-benzonitrile]	–	–	7.6 µM	56	94	–
COc1ccc(CN2C(=O)c3cccc(N4CCN(Cc5ccccn5)CC4)c3C2=O)cc1OC [Cpd 84, 2-(3,4-dimethoxy-benzyl)-4-(4-pyridin-2-ylmethyl-piperazin-1-yl)-isoindole-1,3-dione]	2.8	–	–	–	–	–
COc1cc(CN2C(=O)c3cccc(N4CC5CCC(C4)N5Cc4ccccc4)c3C2=O)cc(OC)c1 [Cpd 45, 4-(8-benzyl-3,8-diaza-bicyclo[3.2.1]oct-3-yl)-2-(3,5-dimethoxy-benzyl)-isoindole-1,3-dione]	–	–	13 µM	55	40	–
COc1ccc(C(CCCNS(=O)(=O)c2ccc(Cl)s2)N2C(=O)c3cccc(N4CCN([C@H](C)c5ccccc5)CC4)c3C2=O)cc1OC (stereo partly drawn) [Cpd 71, 5-chloro-thiophene-2-sulfonic acid (4-(3,4-dimethoxy-phenyl)-4-{1,3-dioxo-4-[4-(1R)-(1-phenyl-ethyl)-piperazin-1-yl]-1,3-dihydro-isoindol-2-yl}-butyl)-amide]	–	–	1.7 µM	58	37	–
COc1ccc(CN2C(=O)c3c(Cl)ccc(N4CCN([C@H](C)c5ccccc5)CC4)c3C2=O)cc1OC [Cpd 10, 4-chloro-2-(3,4-dimethoxy-benzyl)-7-[4-(1R)-(1-phenyl-ethyl)-piperazin-1-yl]-isoindole-1,3-dione]	–	–	0.21 µM	100	106	–
COc1cc2c(cc1OC)C(N1C(=O)c3cccc(N4CCN(Cc5ccccc5)CC4)c3C1=O)CC2 (stereo not shown) [Cpd 11, 4-(4-benzyl-piperazin-1-yl)-2-(5,6-dimethoxy-indan-1-yl)-isoindole-1,3-dione]	–	–	0.34 µM	100	101	–
COc1ccc(CN2C(=O)c3cccc(N4CCN(Cc5ccc(F)cc5F)CC4)c3C2=O)cc1OC [Cpd 24, 4-[4-(2,4-difluoro-benzyl)-piperazin-1-yl]-2-(3,4-dimethoxy-benzyl)-isoindole-1,3-dione]	–	–	2.1 µM	96	100	–
COc1ccc(CN2C(=O)c3cccc(N4CCN(CCc5ccccc5)CC4)c3C2=O)cc1OC [Cpd 22, 2-(3,4-dimethoxy-benzyl)-4-(4-phenethyl-piperazin-1-yl)-isoindole-1,3-dione]	–	–	1.9 µM	100	100	–
COc1ccc(CN2C(=O)c3cccc(N4CCN(Cc5ccc(C)cc5)CC4)c3C2=O)cc1OC [Cpd 40, 2-(3,4-dimethoxy-benzyl)-4-[4-(4-methyl-benzyl)-piperazin-1-yl]-isoindole-1,3-dione]	–	–	9 µM	47	87	–
COc1ccc(CN2C(=O)c3cccc(OCCN(C)Cc4ccccc4)c3C2=O)cc1OC [Cpd 53, 4-[2-(benzyl-methyl-amino)-ethoxy]-2-(3,4-dimethoxy-benzyl)-isoindole-1,3-dione]	–	–	21 µM	22	78	–
